Like-named read-outs stand apart in the source and are kept apart here.
Legend:
Assay in all cases: SelectScreen Kinase Profiling, single point inhibition and IC50 for off-target kinases
Type in all cases: biochemical
[1] = target: off-target kinases (Homo sapiens, UniProt Q9H4B4); settings: PLK3, ATP Km app, ZLYTE
[2] = target: T1, off-target kinases (Homo sapiens, UniProt Q8TF76); settings: GSG2 (Haspin); Cmpd1 1000 μM; ATP Km app; Adapta
T1 sequence (Q8TF76 1-798): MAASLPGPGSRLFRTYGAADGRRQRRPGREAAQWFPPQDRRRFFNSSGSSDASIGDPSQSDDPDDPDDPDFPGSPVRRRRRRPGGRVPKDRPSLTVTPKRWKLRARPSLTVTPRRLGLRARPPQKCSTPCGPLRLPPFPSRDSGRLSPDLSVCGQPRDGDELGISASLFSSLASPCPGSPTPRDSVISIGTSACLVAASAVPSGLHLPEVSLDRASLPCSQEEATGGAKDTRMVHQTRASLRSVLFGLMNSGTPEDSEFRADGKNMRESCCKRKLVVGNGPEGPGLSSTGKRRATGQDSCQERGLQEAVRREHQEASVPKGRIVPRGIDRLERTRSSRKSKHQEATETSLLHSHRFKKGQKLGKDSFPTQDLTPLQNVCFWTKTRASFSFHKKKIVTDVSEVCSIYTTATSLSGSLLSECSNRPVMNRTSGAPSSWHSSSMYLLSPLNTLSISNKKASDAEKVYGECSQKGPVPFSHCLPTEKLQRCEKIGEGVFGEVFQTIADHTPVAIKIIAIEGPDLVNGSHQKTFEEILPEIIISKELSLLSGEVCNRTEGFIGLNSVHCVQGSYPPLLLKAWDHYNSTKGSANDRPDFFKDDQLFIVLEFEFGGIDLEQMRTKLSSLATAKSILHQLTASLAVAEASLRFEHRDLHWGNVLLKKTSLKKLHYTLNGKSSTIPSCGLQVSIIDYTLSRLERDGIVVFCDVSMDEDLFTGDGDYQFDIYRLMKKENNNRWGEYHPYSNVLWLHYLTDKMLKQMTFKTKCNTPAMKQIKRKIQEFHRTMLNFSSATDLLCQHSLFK

[3] = target: T2, off-target kinases (Homo sapiens, UniProt Q8TDC3); settings: BRSK1 (SAD1), ATP Km app, ZLYTE
T2 sequence (Q8TDC3 1-778): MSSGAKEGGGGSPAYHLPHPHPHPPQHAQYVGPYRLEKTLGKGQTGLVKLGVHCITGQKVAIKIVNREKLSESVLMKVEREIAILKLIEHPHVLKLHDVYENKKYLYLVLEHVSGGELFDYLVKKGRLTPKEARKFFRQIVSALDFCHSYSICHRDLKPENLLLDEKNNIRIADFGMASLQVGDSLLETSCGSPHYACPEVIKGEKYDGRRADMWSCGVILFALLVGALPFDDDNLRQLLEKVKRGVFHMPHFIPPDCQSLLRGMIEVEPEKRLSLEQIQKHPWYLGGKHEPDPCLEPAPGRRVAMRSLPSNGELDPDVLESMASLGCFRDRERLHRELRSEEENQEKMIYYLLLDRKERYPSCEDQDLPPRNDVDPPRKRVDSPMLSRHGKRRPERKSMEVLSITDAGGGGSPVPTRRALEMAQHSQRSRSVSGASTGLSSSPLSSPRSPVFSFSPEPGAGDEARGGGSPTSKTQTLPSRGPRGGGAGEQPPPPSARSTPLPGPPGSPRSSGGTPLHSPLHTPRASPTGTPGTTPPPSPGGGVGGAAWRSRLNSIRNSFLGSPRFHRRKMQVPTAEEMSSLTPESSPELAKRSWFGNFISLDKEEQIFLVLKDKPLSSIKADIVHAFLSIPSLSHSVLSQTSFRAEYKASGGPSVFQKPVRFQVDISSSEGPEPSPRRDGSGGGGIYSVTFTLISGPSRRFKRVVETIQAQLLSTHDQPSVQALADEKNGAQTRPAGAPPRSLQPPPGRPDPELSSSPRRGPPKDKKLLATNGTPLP

Sequence of off-target kinases (Homo sapiens, UniProt Q9H4B4) (Q9H4B4 whole entry): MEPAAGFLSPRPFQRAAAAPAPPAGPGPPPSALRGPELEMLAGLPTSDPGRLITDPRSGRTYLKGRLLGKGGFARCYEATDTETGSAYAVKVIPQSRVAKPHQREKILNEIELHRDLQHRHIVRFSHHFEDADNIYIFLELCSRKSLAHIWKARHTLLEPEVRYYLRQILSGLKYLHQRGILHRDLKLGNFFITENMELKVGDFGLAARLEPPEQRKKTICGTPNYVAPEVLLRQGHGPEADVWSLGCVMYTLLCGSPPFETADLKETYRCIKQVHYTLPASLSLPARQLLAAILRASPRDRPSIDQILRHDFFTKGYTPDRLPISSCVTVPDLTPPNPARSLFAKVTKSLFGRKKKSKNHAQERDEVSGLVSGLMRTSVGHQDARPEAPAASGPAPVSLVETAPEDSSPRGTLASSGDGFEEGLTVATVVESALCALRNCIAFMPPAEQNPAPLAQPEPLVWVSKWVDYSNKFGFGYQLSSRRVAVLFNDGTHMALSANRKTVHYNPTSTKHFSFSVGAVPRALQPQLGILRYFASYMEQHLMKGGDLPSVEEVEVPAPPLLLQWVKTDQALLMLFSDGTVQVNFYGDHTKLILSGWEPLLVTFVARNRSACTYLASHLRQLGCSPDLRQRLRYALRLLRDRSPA

## N#Cc1cc(-c2ncnc(Nc3ccc(N4CCN(C5COC5)CC4)cc3)n2)ccc1OC1CCOCC1 [Compound 1, 5-(4-((4-(4-(oxetan-3-yl)piperazin-1-yl)phenyl)amino)-1,3,5-triazin-2-yl)-2-((tetrahydro-2H-pyran-4-yl)oxy)benzonitrile]
[1]; read-out: % Inhibition 1
  inhibition: 80%
[1]; read-out: % Inhibition 2
  inhibition: 76%
[1]; read-out: % Inhibition Avg
  inhibition: 78%
[2]
  % Inhibition 1: 7%
  % Inhibition 2: −20%
  % Inhibition Avg: −6%
[3]; read-out: % Inhibition 1
  inhibition: 92%
[3]; read-out: % Inhibition 2
  inhibition: 89%
[3]; read-out: % Inhibition Avg
  inhibition: 90%
